Data set [1] relates to receptor (receptor binding assay) or mouse free fat cell (lipogenesis). The data set can be described thus: Biological activity relative to human insulin, receptor binding or lipogenesis assays. As to conditions: for Activity relative to human insulin (= 1.00): either receptor binding or lipogenesis assays. From the text:
Metab. Res. 6, 12-16 and Vølund (1978) Biometrics 34, 357-365 or in the receptor binding assay as described by Andersen et al. (1992) J. Biol. Chem. 267, 13681-13686.
Methods of analysing the biological activity (hypoglycaemic effect) of insulins are well know, and include receptor binding assays using whole cells or soluble receptors, the mouse free fat cell assay, euglycaemic pig clamp assay, intravenous rabbit blood glucose assay and the subcutaneous mouse blood glucose assay (Vølund et al. (1991) Diabetic Medicine, 8, 839-847, Brange et al. (1990) Diabetes Care 13, 923-954, Drejer (1992) Diabetes/Metabolism Reviews 8, 259-286)

Data set [2] has as its system NOD mice. The data set can be described thus: Effect on blood glucose level of daily subcutaneous injection in NOD mice (Example 1). Type of data set: in vivo, mouse. As to conditions: for effect on blood glucose level: day 7, 6 hours after injection, female NOD mice. The method, then: Furthermore, 4 of the 5 animals receiving insulin (3.8 mg/kg) died of hypoglycaemia after 3-5 days of treatment and animal number five had to be sacrificed on day seven due to symptoms of hypoglycaemia.

Data set [3] relates to NOD mice. The data set can be described thus: Prophylactic effect of daily subcutaneous administration on diabetes and survival in NOD mice (Example 2). Format: in vivo. As to conditions: for protection against development of diabetes compared with human insulin: daily s.c., equimolar doses (0.77 mg/kg), NOD mice; for diabetes incidence versus buffer treated animals at 40 weeks of age: s.c. daily 0.77 mg/kg from 5 to 32 weeks of age, after termination of treatment; for diabetes incidence versus buffer treated animals at 31 weeks of age: s.c. daily 0.77 mg/kg from 5 weeks of age, after 26 weeks of treatment, female NOD mice; for mice died of hypoglycaemia during the treatment period: 0.77 mg/kg. The method, then:
Female NOD (non-obese diabetic) mice, 4 weeks old, were obtained from Bommice (Bomholtgård, Ry, Denmark). At the beginning of the experiment there were a total of 30 animals in each of the three groups mentioned below. […] The treatment was continued until the mice were 32 weeks old, at which age treatment was stopped and the mice observed until they were 40 weeks old. Beginning when the mice were 10 weeks old, the urine was tested weekly for the presence of glucose using glucosuria test tape (Tes-Tape, Lilly, Indianapolis, Ind.). If an animal tested positive in the glucose urine test, a blood sample was taken and blood glucose measured using a glucose analyzer. If the blood glucose was 15 mmol/l or higher, the animal was classified as diabetic and then sacrificed.

The test system of data set [4] is NOD mice. Kind of data set: Daily subcutaneous administration in the initial stage of diabetes in NOD mice (Example 3). Format: in vivo. As to conditions: for frequency of diabetes compared to buffer treated animals: s.c. daily 0.77 mg/kg from 10 to 37 weeks of age, effect from 15 weeks until end, female NOD mice; for cases of diabetes after termination of the treatment: treatment stopped at 37 weeks, observed until 39 weeks. The method, then:
Female NOD (non-obese diabetic) mice, 4-5 weeks old, were obtained from the Jackson Laboratory (Bar Harbour, Me.). At the beginning of the experiment, there were a total of 20 animals in each of the three groups mentioned below. […] The treatment was continued until the mice were 37 weeks old, at which age treatment was stopped. The mice were observed until they were 39 weeks old. Beginning when the mice were 10 weeks old, the urine was tested weekly for the presence of glucose using glucosuria test tape (Tes-Tape, Lilly, Indianapolis, Ind.). If an animal tested positive in the glucose urine test, a blood sample was taken and blood glucose measured using a glucose analyzer. If the blood glucose was 15 mmol/l or higher, the animal was classified as diabetic and sacrificed.

In another data set the test system is C57/BL mice. Kind of data set: Effect of oral administration on blood glucose level in mice (Example 4). As to conditions: oral gavage 1 mg, 2 times a week, after 4 weeks of treatment; non-fasted; 15 minutes. Type of data set: in vivo, mouse. How it is done: After 4 weeks of treatment, the effect on the blood glucose level in non-fasted animals was analyzed. An initial blood sample was taken in order to determine the control blood glucose level. 15-30 minutes later the animals were fed by gavage and the blood glucose level was determined after further 15, 60 and 180 minutes. […] Insulin is a well known growth factor and has a direct mitogenic effect. The consequence of having a high concentration of intact insulin in the gut lumen directly exposing gut epithelium to its effect is not known but could potentially be serious.

On to Abu^A2,Abu^A3 human insulin, for which the “Activity relative to human insulin (= 1.00)” value in data set [1] is on record as 0.0041.
Same read-out and setting: with Ala^A2 human insulin the figure was 0.006.
Still for that read-out and setting: the figure for Asn^B12 human insulin is 0.002.
For Asp^B25 human insulin, the “mice died or displayed hypoglycaemia” value in the data set with NOD mice [2] (s.c. daily 17.3, 5.8 or 0.6 mg/kg, 26 days observation period) is listed as “None”. Moreover, in the data set on NOD mice [2] (s.c. daily 17.3, 5.8 or 0.6 mg/kg), the “effect on blood glucose level” value is listed as “do not affect the blood glucose levels”. In the data set with NOD mice [3] (0.77 mg/kg s.c. daily until 32 weeks, observed until 40 weeks), the “cases of diabetes after termination of treatment” value was 1 case. In addition, the “protection against development of diabetes compared with human insulin” value in the data set on NOD mice [3] (listed as X38, 0.77 mg/kg) is “prevented the development of diabetes to the same, or higher degree as insulin did”. In addition, in the data set with NOD mice [3] (listed as human insulin with a single amino acid substitution in position B25, 0.77 mg/kg), the “protection against development of diabetes compared with human insulin” value is recorded as “protects as well against diabetes as equimolar doses of human insulin does”. Further, in the data set with NOD mice [3], the “diabetes incidence versus buffer treated animals at 40 weeks of age” value is “still highly significantly lower” and the “diabetes incidence versus buffer treated animals at 31 weeks of age” value was “highly significantly (p<0.01) lower”. Moreover, the treated animals died result in the data set with NOD mice [3] (s.c. daily 0.77 mg/kg, 30 animals per group, not statistically different from buffer group) was “one”. Also, in data set [1], the “hormonally active (relative to human insulin)” value is “less than 0.1%” and the “Activity relative to human insulin (= 1.00)” value was found to be 0.001. In the data set on NOD mice [4], the “frequency of diabetes compared to buffer treated animals” value was “reduced the frequency of diabetes to the same, or higher degree as insulin did” and the “cases of diabetes after termination of the treatment” value was “no cases of diabetes occurred”. Moreover, in the data set on NOD mice [4] (s.c. daily 0.77 mg/kg, 20 animals per group), the treated animals died entry is “none”.
As to D-Ala^B12 human insulin, in data set [1], the “Activity relative to human insulin (= 1.00)” value was found to be 0.007.
Still for that read-out and setting: the figure for D-Cys^A6 human insulin is 0.0023; for D-Cys^A6,D-Cys^A11 human insulin it is 0.00027.
The same measure, in the same setting: the figure for D-Cys^A7 human insulin is 0.002; for D-Cys^A11 human insulin it is 0.007.
The same measure, in the same setting: the figure for D-allo Ile^A2 human insulin is 0.002; for Glu^B12 human insulin it is 0.0004.
As to Gly^A2 human insulin, the “Activity relative to human insulin (= 1.00)” value in data set [1] is given as 0.01.
On to Gly^A2,Gly^A3 human insulin, for which the “Activity relative to human insulin (= 1.00)” value in data set [1] is 0.00014.
As for Gly^B6 human insulin, the “Activity relative to human insulin (= 1.00)” value in data set [1] was 0.0005.
For the substance Leu^A3 human insulin, in data set [1], the “Activity relative to human insulin (= 1.00)” value worked out at 0.0018.
Still for that read-out and setting: with Leu^A19 human insulin the figure was 0.001.
As for Nle^A2 human insulin, the “Activity relative to human insulin (= 1.00)” value in data set [1] was determined as 0.01.
The same measure, in the same setting: with Nle^A3 human insulin the figure was 0.0038; with Nva^A3 human insulin, 0.014.
Still for that read-out and setting: the figure for Phe^B12 human insulin is 0.002; for Pro^A2 human insulin it is 0.01.
For the substance “Ser^A6,Ser^A11,des(A8-A10) human insulin”, in data set [1], the “Activity relative to human insulin (= 1.00)” value was 0.0001.
Same read-out and setting: with Thr^A2 human insulin the figure was 0.001.
Still for that read-out and setting: the figure for Val^A2,Ile^A3 human insulin is 0.021.
On the same count and under the same terms, with des (A1-A2) human insulin the figure was 0.0014; with des (A1-A3) human insulin, 0.0011; with des (B1-B5) human insulin, 0.05.
As to des (B1-B6) human insulin, the “Activity relative to human insulin (= 1.00)” value in data set [1] was determined as 0.0004.
Still for that read-out and setting: the figure for des (B23-B30) human insulin is 0.001.
On the same count and under the same terms, the figure for des (B24-B30) human insulin is 0.002; for des (B25-B30) human insulin it is 0.06; for desA1 human insulin it is 0.006.
The same measure, in the same setting: the figure for desA21 human insulin is 0.04.
As for human insulin [reference compound], the “effect on blood glucose level” value with NOD mice [2] (s.c. daily 0.6 mg/kg) was “marked hypoglycaemic effect”. Also, in the data set with NOD mice [2] (s.c. daily 3.8 mg/kg, days of treatment), the “time of death from hypoglycaemia” value is 3 to 5 days. Also, the “animals died of hypoglycaemia” value in the data set on NOD mice [2] (s.c. daily 3.8 mg/kg, group of 5 NOD mice) is listed as 4 of the 5. The “blood glucose level immediately after feeding” value with C57/BL mice is given as “profound immediate reduction in the blood glucose level”. In the data set on NOD mice [3], the “diabetes incidence versus buffer treated animals at 40 weeks of age” value was “still significantly (p<0.05) lower” and the “diabetes incidence versus buffer treated animals at 31 weeks of age” value is listed as “significantly reduced the incidence of diabetes”. Further, the “mice died of hypoglycaemia during the treatment period” value with NOD mice [3] (s.c. daily 0.77 mg/kg, 30 animals per group) is recorded as “approx. 50%”. For the same substance, the “mice died of hypoglycaemia during the treatment period” value in the data set with NOD mice [3] (s.c. daily 0.77 mg/kg, 30 animals per group, listed as insulin) is 50%. For the same substance, in the data set on NOD mice [4], the “frequency of diabetes compared to buffer treated animals” value is reported as “reduced the frequency of diabetes” and the “cases of diabetes after termination of the treatment” value is given as “no cases of diabetes occurred”.
